The text below walks through data of patent US9611286B2, “Ruthenium carbon monoxide releasing molecules and uses thereof” (Alfama, Inc., priority 2011, dated 2017).

Series [1] concerns P. berghei ANKA GFP. It counts as in vivo, C57BL/6 mice. To be noted: treated twice daily days 2-3; observed from about day 5 to day 8 of infection. How it is done: It has previously been shown that administration of CO by inhalation protects P. berghei ANKA infected C57BL/6 mice from developing ECM (see, e.g., Pamplona et al. Nat Med (2007) 13:703-710). The inventors questioned whether CO-RMs could mimic the protection conferred by CO inhalation in P. berghei ANKA infection. To this end, a known ruthenium CORM, Ru(CO)3Cl2, also referred to herein as CORM-2, was tested on different schedules of treatment and doses in P. berghei ANKA infected C57BL/6 mice (data not shown).
Red blood cells infected with green fluorescent protein (GFP)-transgenic P. berghei ANKA and P. berghei ANKA was used to infect mice (see, e.g., Franke-Fayard et al. Mol Biochem Parasitol (2004) 137:23-33). Cryopreserved parasites were passed once through C57BL/6 or DBA-2 mice before being used to infect experimental animals. C57BL/6 or DBA-2, 6- to 8-wk-old mice (sex matched in each experiment) were infected by intra-peritoneal (i.p.) injection of 10^6 infected RBCs. The infected mice were monitored daily for clinical symptoms of experimental cerebral malaria (ECM) including hemi- or paraplegia, head deviation, tendency to roll over on stimulation, ataxia and convulsions, or ALI, including dyspnea. Mice showing severe signs of ECM at day 5, 6 or 7 post-infection (p.i.) and ALI between days 7 and 9 were sacrificed. Parasitemia was assessed by flow cytometry for mice infected with GFP-expressing P. berghei ANKA, using tail blood, as previously described (see, e.g., Pamplona et al., Nat Med (2007) 13:703-710). Mean parasitemia is expressed as percentage of infected red blood cells. For mice infected with non-GFP P. berghei parasitemia was assessed daily by microscopic counting of Giemsa-stained thin blood smears. Mean parasitemia is expressed as percentage of infected red blood cells. Survival is expressed as percentage.
In order to evaluate the clinical presentation of experimental cerebral malaria, a classification was used in clinical stages from 0 to 4 (see, e.g., Bienvenu et al., Acta Trop (2008) 106:104-8; Franklin et al., Proc Natl Acad Sci USA (2011) 108:3689-94). Briefly, stage 0 indicates no detectable clinical symptoms, stage 1, ruffled fur; stage 2, ruffled fur and unbalancing; stage 3, limb paralysis and respiratory distress and stage 4, convulsions, coma or death. The mice were clinically classified before and after the treatment to evaluate the clinical recovery.
CORM-2 (Sigma-Aldrich) and Compound 2 were solubilized using 10% dimethyl sulfoxide (DMSO; Sigma-Aldrich) in PBS. CORM-3 and Compound 1 were solubilized in PBS (lx). CORM-2 solution (20 mg/kg of body weight) was administered intravenously (i.v.) according to the chosen schedules. […] As vehicle control, we used a solution of 10% DMSO in PBS administered i.v. The concentrations of CORM-2 used in the present study were based on previous reports (see, e.g., Chen et al. Am. J. Pathol. (2009) 175:422-429; Sun et al., World. J. Gastroenterol. (2008) 14:547-553). Artesunate is presented as a powder of artesunic acid. Artesunate (AS) solution was prepared by dissolving 60 mg of anhydrous artesunic acid in 1 ml of sodium bicarbonate (5%) to form sodium artesunate and then diluted in 5 ml of NaCl (0.9%). An AS solution (i.p.) was administered at 40 mg/Kg/day, as described previously (see, e.g., Bienvenu, Acta Trop (2008) 106:104-108). The AS treatment was started when the infected non-treated mice presented the clinical stage 1 for experimental cerebral malaria.

Series [2] in a line: Determination of CO in tissues. The class given is in vivo. To be noted: one hour after i.v. administration, non-infected mice. How it is done:
It is hypothesized that Compound 1 promotes/increases erythrophagocytosis.
CO was quantified in different tissues as previously described (see, e.g., Vreman et al., Anal Biochem (2005) 341:280-289). Briefly, CO was liberated as gas in a closed vial by adding 25 μL of water and 5 μL of sulfosalicylic acid (SSA, 30% [wt/vol]) to 30 μL of diluted sample after being homogenized. The vials were incubated on ice for at least 10 min before being analyzed. The gas in the headspace of the vials was analyzed quantitatively with a gas chromatograph (GC) equipped with a reducing-compound photometry detector (RCP detector) (Peak Laboratories, Mountain View, Calif.), which allows to quantify CO in gas at concentrations as low as 1-2 parts per billion (ppb). The amount of CO was calculated using a calibration curve prepared from CO standards. Briefly, blood was collected from the tail of the mice to capillary tubes (VWR) with heparin (100 i.u./ml in PBS 1×; LEO Pharma Inc.), transferred into AVOXimeter 4000 cuvettes (ITC) where the levels of carboxyhemoglobin (COHb), oxyhemoglobin (O2Hb) and methemoglobin (MetHb) were measured in a portable AVOXimeter 4000 CO-oximeter (ITC). Results are shown as mean percentage of total hemoglobin species in circulation.

Series [3] is described as follows: Quantification of COHb in peripheral blood. The class given is in vivo, C57BL/6 mice. To be noted: infected mice, day 3 after infection. How it is done:
Blood was collected from the tail of the mice to capillary tubes (VWR) with heparin (100 i.u./ml in PBS 1×; LEO Pharma Inc.), transferred into AVOXimeter 4000 cuvettes (ITC) where the levels of carboxyhemoglobin (COHb), oxyhemoglobin (02Hb) and methemoglobin (MetHb) were measured in a portable AVOXimeter 4000 CO-oximeter (ITC). Results are shown as mean percentage of total hemoglobin species in circulation.

Series [4] in a line: BBB disruption by Evans blue accumulation in brain parenchyma. The class given is in vivo, C57BL/6 mice. To be noted: when control mice showed signs of ECM.
For series [5], the system named is P. berghei ANKA. Briefly: Malaria-associated acute lung injury (M-AALI) model. To be noted: i.v. twice daily between days 2 and 4 after infection. It counts as in vivo, DBA/2 mice.
Source text: The M-AALI model, based on the infection of DBA-2 mice with P. berghei ANKA, is characterized by dyspnea, airway obstruction, hypoxemia, pulmonary exudate and elevated VEGF levels in plasma, followed by death between days 7 and 12 after infection.
Red blood cells infected with green fluorescent protein (GFP)-transgenic P. berghei ANKA and P. berghei ANKA was used to infect mice (see, e.g., Franke-Fayard et al. Mol Biochem Parasitol (2004) 137:23-33). Cryopreserved parasites were passed once through C57BL/6 or DBA-2 mice before being used to infect experimental animals. […] The infected mice were monitored daily for clinical symptoms of experimental cerebral malaria (ECM) including hemi- or paraplegia, head deviation, tendency to roll over on stimulation, ataxia and convulsions, or ALI, including dyspnea. […] Parasitemia was assessed by flow cytometry for mice infected with GFP-expressing P. berghei ANKA, using tail blood, as previously described (see, e.g., Pamplona et al., Nat Med (2007) 13:703-710). Mean parasitemia is expressed as percentage of infected red blood cells. For mice infected with non-GFP P. berghei parasitemia was assessed daily by microscopic counting of Giemsa-stained thin blood smears. Mean parasitemia is expressed as percentage of infected red blood cells. Survival is expressed as percentage. […]
Series [6] relates to VEGF. Briefly: VEGF protein levels in plasma (ELISA), M-AALI model. It counts as in vivo. To be noted: infected DBA/2 mice. Here is the method: Mouse VEGF in plasma samples was determined using a commercial ELISA kit (R&D Systems) following the manufacturer's instructions. The group classification was only performed by the end of each experiment after determining the cause of death.
(ELISA stands for enzyme-linked immunosorbent assay.)

Consider `C[SH]([C@@H]1OC(CO)[C@H](O)[C@H](O)C1O)[Ru]([Cl])([Cl])([CH]=O)([CH]=O)[CH]=O` (stereo partly drawn) [Compound 1, Tricarbonyldichloro(methylthiogalactopyranoside) Ru(II)], for which the effect on parasitemia result in series [1] was “small but significant arrest in parasitemia”. In series [2], the “levels of CO in organs” value was “higher levels of CO in the liver and spleen”. Besides, the “COHb levels in the blood” value in series [3] is “without causing measurable increase in COHb levels”. Further, in series [4], the BBB disruption result is “did not show any evidence of BBB disruption”. Besides, in series [5], the “mice that developed M-AALI” value is given as “None”. Besides, the “VEGF levels in plasma” value in series [6] was “significantly lower”.
